Experimental data as given in patent publication US20250179061A1 (SIRONAX LTD., priority 2022, published 2025).
Where two headings read alike, the source gives them in different places.

Tested on: HT-29 cells
Experiment: HT-29 necroptosis cell viability assay (TNF-α/SMAC mimetic/zVAD-FMK, CellTiter-Glo)
Assay type: cell-based
Conditions: Homo sapiens
Outline: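 HT-29 cells (~5,000/well, overnight) in FBS-free McCoy's 5A with TNF-α 10 ng/ml, SMAC mimetic 6 μM and zVAD-FMK 10 μM plus 10-point 1:3 compound titration, 20 h at 37°C. ATP measured by CellTiter-Glo luminescence; IC50 as geometric mean of duplicates.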

[1] = HT-29, HT-29 necroptosis cell viability, IC50 class symbols, read-out: Activity
[2] = HT-29, HT-29 necroptosis cell viability assay, class symbols for IC50, read-out: Activity

Compound	IC50 [1] [nM]	IC50 [2] [nM]	further results
Cc1nc(C2(F)CC(O)C2)sc1Oc1ccc(-n2ncn(Cc3c(F)cccc3F)c2=O)cc1F (stereo not drawn) [Example 110, 4-(2,6-difluorobenzyl)-2-(3-fluoro-4-((2-(1-fluoro-3-hydroxycyclobutyl)-4-methylthiazol-5-yl)oxy)phenyl)-2,4-dihydro-3H-1,2,4-triazol-3-one]	–	–	IC50 (HT-29 cells stimulated with TNF-α (10 ng/ml), SMAC mimetic (6 μM) and zVAD-FMK (10 μM), 20 hours, CellTiter-Glo ATP luminescence, geometric mean IC50 from 10 points, read-out: Activity): < 100 nM
Cc1nc(N2CC(C)(C#N)C2)nn1Cc1ccc(-n2ncn(Cc3c(F)cccc3F)c2=O)cc1 [Example 665, 1-(1-(4-(4-(2,6-difluorobenzyl)-5-oxo-4,5-dihydro-1H-1,2,4-triazol-1-yl)benzyl)-5-methyl-1H-1,2,4-triazol-3-yl)-3-methylazetidine-3-carbonitrile]	–	–	IC50 (HT-29, HT-29 cells, necroptosis induced by TNF-α/SMAC mimetic/zVAD-FMK, CellTiter-Glo, read-out: Activity (IC50 class)): 1000 to 10000 nM
CC(C)(C)CCNc1cc(Oc2ccc(-n3ncn(Cc4c(F)cccc4F)c3=O)cc2)ccn1 [Example 385, 4-(2,6-difluorobenzyl)-2-(4-((2-((3,3-dimethylbutyl)amino)pyridin-4-yl)oxy)phenyl)-2,4-dihydro-3H-1,2,4-triazol-3-one]	1000 to 10000	–	–
CC(C)(O)C1CCN1c1cc(Oc2ccc(-n3ncn(Cc4c(F)cccc4F)c3=O)cc2F)c(F)cn1 (stereo not drawn) [Example 293, 4-(2,6-difluorobenzyl)-2-(3-fluoro-4-((5-fluoro-2-(2-(2-hydroxypropan-2-yl)azetidin-1-yl)pyridin-4-yl)oxy)phenyl)-2,4-dihydro-3H-1,2,4-triazol-3-one]	< 100	–	–
Cc1c(Oc2ccc(-n3ncn(Cc4c(F)cccc4F)c3=O)cc2)ccnc1N1CC2(CCOCC2)C1 [Example 273, 4-(2,6-difluorobenzyl)-2-(4-((3-methyl-2-(7-oxa-2-azaspiro[3.5]nonan-2-yl)pyridin-4-yl)oxy)phenyl)-2,4-dihydro-3H-1,2,4-triazol-3-one]	100 to 1000	–	–
NC[C@H]1CCN1c1cc(Oc2ccc(-n3ncn(Cc4c(F)cccc4F)c3=O)cc2F)c(F)cn1 [Example 375, (R)-2-(4-((2-(2-(aminomethyl)azetidin-1-yl)-5-fluoropyridin-4-yl)oxy)-3-fluorophenyl)-4-(2,6-difluorobenzyl)-2,4-dihydro-3H-1,2,4-triazol-3-one]	< 100	–	–
Cc1nc(Br)sc1Oc1ccc(-n2ncn(Cc3cc(Cl)ccn3)c2=O)cc1F [Example 573, 2-(4-((2-bromo-4-methylthiazol-5-yl)oxy)-3-fluorophenyl)-4-((4-chloropyridin-2-yl)methyl)-2,4-dihydro-3H-1,2,4-triazol-3-one]	–	100 to 1000	–
C[C@H]1[C@@H](N)CN1c1cc(Oc2ccc(-n3ncn(Cc4c(F)cccc4F)c3=O)cc2F)c(Cl)cn1 [Example 425, 2-(4-((2-((2S,3S)-3-amino-2-methylazetidin-1-yl)-5-chloropyridin-4-yl)oxy)-3-fluorophenyl)-4-(2,6-difluorobenzyl)-2,4-dihydro-3H-1,2,4-triazol-3-one]	< 100	–	–
N#Cc1cc(Oc2ccc(-n3ncn(Cc4c(F)cccc4F)c3=O)cc2)ncn1 [Example 630, 6-(4-(4-(2,6-difluorobenzyl)-5-oxo-4,5-dihydro-1H-1,2,4-triazol-1-yl)phenoxy)pyrimidine-4-carbonitrile]	–	1000 to 10000	–
Cc1nc(C(C)N)sc1Oc1ccc(-n2ncn(Cc3c(F)cccc3F)c2=O)cc1F (stereo not drawn) [Example 163, 2-(4-((2-(1-aminoethyl)-4-methylthiazol-5-yl)oxy)-3-fluorophenyl)-4-(2,6-difluorobenzyl)-2,4-dihydro-3H-1,2,4-triazol-3-one]	–	< 100	–
CC(C)OC1CN(c2cccc(Oc3ccc(-n4ncn(Cc5c(F)cccc5F)c4=O)cc3)n2)C1 [Example 253, 4-(2,6-difluorobenzyl)-2-(4-((6-(3-isopropoxyazetidin-1-yl)pyridin-2-yl)oxy)phenyl)-2,4-dihydro-3H-1,2,4-triazol-3-one]	< 100	–	–
Cc1nc(C(=O)NC2CCOCC2)sc1Oc1ccc(-n2nc3n(c2=O)[C@H](c2ccccc2)CC3)cc1F (single isomer, unassigned) [Example 602]	–	< 100	–
